The values that follow come from US10954253B2, “1,2-dihydro-3H-pyrazolo[3,4-d]pyrimidin-3-one derivative as Wee1 inhibitor” (SHIJIAZHUANG SAGACITY NEW DRUG DEVELOPMENT CO., LTD., priority 2017, dated 2021).

The structures appear in SMILES notation.

In the assay the target is Wee1 (Homo sapiens (Human), UniProt P30291). Description: In vitro enzymatic inhibitory activity (33P-ATP filter-binding kinase assay, MBP substrate). The class given is biochemical. Conditions: Wee-1 150 nM, MBP 20 μM. The procedure: The compounds of the present invention for experimental use were all self-prepared, and their chemical names and structural formulas are shown in the preparation embodiments of the respective compounds. The experimental tests were carried out in Reaction Biology Corporation, USA, and the experimental results were provided by the company. Basic reaction buffer: 20 mM hydroxyethylpiperazine ethanesulfuric acid (pH 7.5), 10 mM magnesium chloride, 1 mM EGTA, 0.02% Brij35, 0.02 mg/mL bovine serum albumin, 0.1 mM Na3VO4, 2 mM DTT, 1% DMSO Enzyme: Wee-1 concentration is 150 nM Matrix: MBP concentration is 20 μM The tested compound was formulated into a 5 mM solution with 100% DMSO, and a 10 points 3-fold gradient dilution was performed with DMSO through an automated pipetting station epMotion 5070. 1. Fresh matrix configuration reaction buffer was prepared; 2. The Wee-1 was added into the matrix solution and shaked gently; 3. DMSO solution of the compound were added into the kinase reaction mixture using an acoustic technique (Echo 550; nanoliter range) and incubated for 20 minutes at room temperature; 4. ^33P-ATP (specific activity, 10 μCi/μL) was added into the reaction mixture to stimulate the reaction; 5. Incubated for 2 hours at room temperature; 6. Kinase activity was detected by filter-binding method.
Chain of Wee1 (P30291 whole entry): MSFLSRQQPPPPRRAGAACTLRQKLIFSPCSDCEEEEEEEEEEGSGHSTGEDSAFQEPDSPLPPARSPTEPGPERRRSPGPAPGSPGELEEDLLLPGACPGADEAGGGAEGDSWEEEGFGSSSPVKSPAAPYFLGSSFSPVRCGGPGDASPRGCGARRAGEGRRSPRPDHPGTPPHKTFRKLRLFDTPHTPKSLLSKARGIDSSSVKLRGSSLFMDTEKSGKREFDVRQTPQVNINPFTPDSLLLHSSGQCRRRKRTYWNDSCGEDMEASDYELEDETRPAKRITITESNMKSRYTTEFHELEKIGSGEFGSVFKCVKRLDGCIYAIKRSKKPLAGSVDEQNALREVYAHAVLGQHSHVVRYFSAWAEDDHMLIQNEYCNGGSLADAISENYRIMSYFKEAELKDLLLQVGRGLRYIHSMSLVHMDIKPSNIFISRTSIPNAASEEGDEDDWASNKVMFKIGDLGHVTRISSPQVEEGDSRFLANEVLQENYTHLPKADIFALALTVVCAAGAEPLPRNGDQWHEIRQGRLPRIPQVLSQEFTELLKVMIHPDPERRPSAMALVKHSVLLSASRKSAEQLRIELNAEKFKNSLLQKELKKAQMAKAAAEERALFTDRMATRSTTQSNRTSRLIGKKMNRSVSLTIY

As a reminder, the IC50 is the midpoint of a concentration-inhibition curve. Higher therefore signals a need for much substance. For the compound `C=CCn1c(=O)c2cnc(Nc3ccc(N4CCC5(CCN(C)CC5)CC4)cc3)nc2n1-c1ccc(F)c(C(C)(C)O)n1` [Compound 80, 2-allyl-1-(5-fluoro-6-(2-hydroxypropan-2-yl)pyridin-2-yl)-6-((4-(9-methyl-3,9-diazaspiro[5.5]undecan-3-yl)phenyl)amino)-1H-pyrazolo[3,4-d]pyrimidin-3(2H)-one], the half-inhibitory concentration (IC50) worked out at 49 nM.

In turn, `C=CCn1c(=O)c2cnc(Nc3ccc(N4CCC5(CCN(C)CC5)CC4)cc3)nc2n1-c1cccc(Cl)n1` [Embodiment 25, 2-allyl-1-(6-chloropyridin-2-yl)-6-((4-(9-methyl-3,9-diazaspiro[5.5]undecan-3-yl)phenyl)amino)-1H-pyrazolo[3,4-d]pyrimidin-3(2H)-one] showed a concentration for half-maximal inhibition (IC50) of 20.4 nM. Against the preceding compound, the IC50 is about 2.4-fold lower.

The compound `C=CCn1c(=O)c2cnc(Nc3ccc(N4CCC5(CCN(C)CC5)CC4)cc3)nc2n1-c1ccccc1` [Embodiment 1, 2-allyl-6-((4-(9-methyl-3,9-diazaspiro[5.5]undecan-3-yl)phenyl)amino)-1-phenyl-1H-pyrazolo[3,4-d]pyrimidin-3(2H)-one] showed a 50% inhibitory concentration (IC50) of 67.4 nM. Compared with the last compound, the IC50 is about 3.3-fold higher.

In turn, `C=CCn1c(=O)c2cnc(Nc3ccc(N4CCC5(CCN(C)CC5)CC4)cc3)nc2n1-c1cccc(C(C)(O)C(F)(F)F)n1` (centres unmarked) [Embodiment 41, 2-allyl-6-((4-(9-methyl-3,9-diazaspiro[5.5]undecan-3-yl)phenyl)amino)-1-(6-(1,1,1-trifluoro-2-hydroxypropan-2-yl)pyridin-2-yl)-1H-pyrazolo[3,4-d]pyrimidin-3(2H)-one] came in with an IC50 of 13.1 nM.

Take `C=CCn1c(=O)c2cnc(Nc3ccc(N4CCC5(CCN(C)CC5)CC4)cc3)nc2n1-c1cccc(OC2CCC2)n1` [Embodiment 54, 2-allyl-1-(6-cyclobutoxypyridin-2-yl)-6-((4-(9-methyl-3,9-diazaspiro[5.5]undecan-3-yl)phenyl)amino)-1H-pyrazolo[3,4-d]pyrimidin-3(2H)-one]: the IC50 was determined as 57 nM.

Take `C=CCn1c(=O)c2cnc(Nc3ccc(N4CCC5(CCN(C)CC5)CC4)c(OC)c3)nc2n1-c1cccc(C(C)(C)O)n1` [Embodiment 38, 2-allyl-1-(6-(2-hdyroxypropan-2-yl)pyridin-2-yl)-6((3-methoxy-4-(9-methyl-3,9-diazaspiro[5.5]undecan-3-yl)phenyl)amino)-1H-pyrazolo[3,4-d]pyrimidine-3(2H)-one]: the IC50 worked out at 20.7 nM.

With `C=CCn1c(=O)c2cnc(Nc3ccc(N4CCC5(CCN(C)CC5)CC4)cc3)nc2n1-c1cccc([C@](C)(O)C(F)(F)F)n1` [Compound 75, (S)-2-allyl-6-((4-(9-methyl-3,9-diazaspiro[5.5]undecan-3-yl)phenyl)amino)-1-(6-(1,1,1-trifluoro-2-hydroxypropan-2-yl)pyridin-2-yl)-1H-pyrazolo[3,4-d]pyrimidin-3(2H)-one], the IC50 was found to be 17 nM.

In turn, `C=CCn1c(=O)c2cnc(Nc3ccc(N4CCC5(CCN(C)CC5)CC4)cc3)nc2n1-c1cccc(Cl)c1` [Embodiment 11, 2-allyl-1-(3-chlorophenyl)-6-((4-(9-methyl-3,9-diazaspiro[5.5]undecan-3-yl)phenyl)amino)-1H-pyrazolo[3,4-d]pyrimidin-3(2H)-one] yielded an IC50 of 48.1 nM.

On to `C=CCn1c(=O)c2cnc(Nc3ccc(N4CCC5(CCN(C)CC5)CC4)cc3)nc2n1-c1cccc(C2(OC)COC2)n1` [Compound 73, 2-allyl-1-(6-(3-methoxyoxetan-3-yl)pyridin-2-yl)-6-((4-(9-methyl-3,9-diazaspiro[5.5]undecan-3-yl)phenyl)amino)-1H-pyrazolo[3,4-d]pyrimidin-3(2H)-one], for which the concentration for half-maximal inhibition (IC50) is 5.3 nM.

Take `CN1CCC2(CC1)CCN(c1ccc(Nc3ncc4c(=O)n(Cc5ccccc5)n(-c5ccccc5)c4n3)cc1)CC2` [Embodiment 23, 2-benzyl-6-((4-(9-methyl-3,9-diazaspiro[5.5]undecane-3-yl)phenyl)amino)-1-phenyl-1H-pyrazolo[3,4-d](2H)-one]: the IC50 is 79.6 nM. This IC50 lies about 15-fold higher than the previous one.

In turn, `C=CCn1c(=O)c2cnc(Nc3ccc(N4CCC5(CC4)CCN(C4COC4)CC5)cc3)nc2n1-c1cccc(C(C)(C)O)n1` [Compound 69] had a 50% inhibitory concentration (IC50) of 5.7 nM.

On to `C=CCn1c(=O)c2cnc(Nc3ccc(N4CCC5(CCN(C)CC5)CC4)cc3)nc2n1-c1ccc(F)cn1` [Embodiment 28, 2-allyl-1-(5-fluoropyridin-2-yl)-6-((4-(9-methyl-3,9-diazaspiro[5.5]undecan-3-yl)phenyl)amino)-1H-pyrazolo[3,4-d]pyrimidin-3(2H)-one], for which the 50% inhibitory concentration (IC50) amounted to 13.2 nM. Compared with the last compound, the IC50 is about 2.3-fold higher.

`C=CCn1c(=O)c2cnc(Nc3ccc(N4CCC5(CCN(C)CC5)CC4)cc3)nc2n1-c1cccc(C2CC2)n1` [Embodiment 45, 2-allyl-1-(6-cyclopropylpyridin-2-yl)-6-((4-(9-methyl-3,9-diazaspiro[5.5]undecan-3-yl)phenyl)amino)-1H-pyrazolo[3,4-d]pyrimidin-3(2H)-one] returned a half-inhibitory concentration (IC50) of 7.4 nM.

Regarding `C=CCn1c(=O)c2cnc(Nc3ccc(N4CCC5(CCN(C)CC5)CC4)cc3)nc2n1-c1cccc(C(C)(O)C(F)F)n1` (centres unmarked) [Compound 78], the IC50 is 32 nM.

Compound `C=CCn1c(=O)c2cnc(Nc3ccc(N4CCC5(CCN(C)CC5)CC4)cc3)nc2n1-c1cccc(C2(O)CC(F)(F)C2)n1` [Compound 66, 2-allyl-1-(6-(3,3-difluoro-1-hydroxycyclobutyl)pyridin-2-yl)-6-((4-(9-methyl-3,9-diazaspiro[5.5]undecan-3-yl)phenyl)amino)-1H-pyrazolo[3,4-d]pyrimidin-3(2H)-one] had a half-maximal inhibitory concentration (IC50) of 15 nM.

`C=CCn1c(=O)c2cnc(Nc3ccc(N4CCC5(CCN(C)CC5)CC4)cc3)nc2n1-c1cccs1` [Embodiment 7, 2-allyl-6-((4-(9-methyl-3,9-diazaspiro[5.5]undecan-3-yl)phenyl)amino)-1-(thiophen-2-yl)-1H-pyrazolo[3,4-d]pyrimidin-3(2H)-one]: the concentration for half-maximal inhibition (IC50) was determined as 82.5 nM.

In turn, `C=CCn1c(=O)c2cnc(Nc3ccc(N4CCC5(CCNCC5)CC4)cc3)nc2n1-c1cccc(C(C)(C)O)n1` [Compound 76, 6-((4-(-3,9-diazaspiro[5.5]undecan-3-yl)phenyl)amino)-2-allyl-1-(6-(2-hydroxypropan-2-yl)pyridin-2-yl)-1H-pyrazolo[3,4-d]pyrimidin-3(2H)-one] returned an IC50 of 13 nM. Compared with the last compound, the IC50 is about 6.3-fold lower.

`C=CCn1c(=O)c2cnc(Nc3ccc(N4CCC5(CCN(C(=O)OC)CC5)CC4)cc3)nc2n1-c1cccc(C(C)(C)O)n1` [Embodiment 31, methyl-9-(4-((2-allyl-1-(6-(2-hydroxypropan-2-yl)pyridin-2-yl)-3-oxo-2,3-dihydro-1H-pyrazolo[3,4-d]pyrimidin-6-yl)amino)phenyl)-3,9-diazaspiro[5.5]undecan-3-ethyl carboxylate] registered a half-maximal inhibitory concentration (IC50) of 15 nM.

On to `CN1CCC2(CC1)CCN(c1ccc(Nc3ncc4c(=O)n(C)n(-c5ccccc5)c4n3)cc1)CC2` [Embodiment 18, 2-methyl-6-((4-(9-methyl-3,9-diazaspiro[5.5]undecane-3-yl)phenyl)amino)-1-phenyl-1H-pyrazolo[3,4-d](2H)-one], for which the IC50 came out at 131 nM.

In the case of `C=CCn1c(=O)c2cnc(Nc3ccc(N4CCC5(CCN(CCOC)CC5)CC4)cc3)nc2n1-c1cccc(C(C)(C)O)n1` [Compound 64, 2-allyl-1-(6-(2-hydroxypropan-2-yl)pyridin-2-yl)-6-((4-(9-(2-methoxylethyl)-3,9-diazaspiro[5.5]undecan-3-yl)phenyl)amino)-1H-pyrazolo[3,4-d]pyrimidin-3(2H)-one], the 50% inhibitory concentration (IC50) turned out to be 9.9 nM.
